# Measured values from US9365541B2, “Compounds for use in the treatment of parasitic diseases” (IRBM—SCIENCE PARK S.P.A., priority 2012, dated 2016).
# Experiments:
# [1] = tested on: histone 4 acetylated lysine 8 (H4K8Ac); test: Histone hyperacetylation assay (Western blot H4K8Ac) in HeLa cells; format: cell-based, human; settings: data not shown
# Protocol: FIG. 2. Hyperacetylation of HeLa's histones. HeLa cells were incubated in vitro for 14-16 hours with increasing concentrations (49 nM to 25 uM) of compound (S)-N-(7-(methylamino)-1-(5-(naphthalen-2-yl)-1H-imidazol-2-yl)-7-oxoheptyl)quinuclidine-4-carboxamide (Table 2, entry 126) or were treated with vehicle (0.01% DMSO). Beta-actin was used as loading control (see materials and methods). H4K8Ac: antibody directed against acetylated lysine 8 of histone 4.
# After result normalization using positive and negative controls, compound potency is determined by fitting the following equation: % inh=Ymin+(Ymax−Ymin)/(1+(X/EC50)^slope)) Where: • Ymin=minimum percentage effect • Ymax=maximum percentage effect • EC50=the concentration of the compound at which 50% effect is reached • Slope=the slope of the curve calculated at the EC50 Histone Hyperacetylation and Immunodetection of Altered Histone Modifications Assay
# (§1) The effect of test compounds on histone acetylation status was determined by incubating Plasmodium falciparum 3D7 infected erythrocytes or HeLa cells with different concentrations of drugs or vehicle (0.01% DMSO) alone. Infected erythrocytes were collected at 14-16 hours post treatment and lysed in saponin (0.15%). […] Supernatants were analyzed by 12% SDS-PAGE and transferred onto PVDF (Immun-Blot PVDF Membrane for Protein Blotting, BIORAD, Cat: No 162-0177) membranes. […]
# [2] = tested on: histone 4 acetylated lysine 8 (H4K8Ac); test: Histone hyperacetylation assay (Western blot H4K8Ac) in P. falciparum 3D7 infected erythrocytes; format: cell-based; settings: Plasmodium falciparum, Erythrocyte, 20 nM to 10 uM, 14-16 hours, read-out: estimated EC50 in the hyperacetylation assay
# Protocol: FIG. 1. Hyperacetylation of P. falciparum histones. Plasmodium falciparum 3D7 infected erythrocytes (5-7% parasitemia) were cultured for 14-16 hours in vitro with increasing concentrations (6 nM to 3 uM) of (A): compound (S)-N-(7-(methylamino)-1-(5-(naphthalen-2-yl)-1H-imidazol-2-yl)-7-oxoheptyl)quinuclidine-4-carboxamide (Table 2, entry 126) or with vehicle (0.01% DMSO); increasing concentrations (20 nM to 10 uM) of (B): compound (S)-N-(1-(5-(4-(1H-pyrazol-5-yl)phenyl)-1H-imidazol-2-yl)-7-(methylamino)-7-oxoheptyl)thiazole-5-carboxamide (Table 2, entry 221; Example 4, D9). Beta-actin was used as loading control (see materials and methods). H4K8Ac: antibody directed against acetylated lysine 8 of histone 4. […]
# as §1, with “alone.” for “alone. Infected erythrocytes were collected at 14-16 hours post treatment and lysed in saponin (0.15%).”
structure (smiles),measurement,setting,value
"CNC(=O)CCCCC[C@H](NC(=O)c1cncs1)c1ncc(-c2ccc(-c3ccn[nH]3)cc2)[nH]1 [D9, (S)-N-(1-(5-(4-(1H-pyrazol-5-yl)phenyl)-1H-imidazol-2-yl)-7-(methylamino)-7-oxoheptyl)thiazole-5-carboxamide]",concentration up to which no change in histone acetylation was observed in HeLa cells,[1],> 10 µM
same,EC50,[2],0.35 µM
